Laboratory results published in the supplement of paper PMC10307832.

Assays:
Assay in all cases: relative viability (nuclei count vs DMSO), 5 days (fraction); higher = more cells survive
NCI-H441 = test system: NCI-H441
Outline: (§1)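 Lung cancer cell lines, seeded in 1536-well plates, were treated the following day by pin tool with a single drug or with five library-drug doses (not always all listed) in √10 steps on top of a fixed anchor-drug dose. Cells were fixed and nuclei stained in one step after 5 days, and nuclei were counted. Relative viability is the nuclei count for treated wells divided by that for vehicle wells, reported as medians of duplicate plates.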

EKVX = test system: EKVX
Outline: as §1

NCI-H358 = test system: NCI-H358
Outline: as §1

HCC-366 = test system: HCC-366
Outline: as §1

NCI-H1437 = test system: NCI-H1437
Outline: as §1

LOU-NH91 = test system: LOU-NH91
Outline: as §1

NCI-H1650 = test system: NCI-H1650
Outline: as §1

HCC-15 = test system: HCC-15
Outline: as §1

NCI-H1734 = test system: NCI-H1734
Outline: as §1

LCLC-103H = test system: LCLC-103H
Outline: as §1

BEN = test system: BEN
Outline: as §1

NCI-H1395 = test system: NCI-H1395
Outline: as §1

NCI-H838 = test system: NCI-H838
Outline: as §1

NCI-H1651 = test system: NCI-H1651
Outline: as §1

NCI-H460 = test system: NCI-H460
Outline: as §1

NCI-H1755 = test system: NCI-H1755
Outline: as §1

CAL-12T = test system: CAL-12T
Outline: as §1

NCI-H2085 = test system: NCI-H2085
Outline: as §1

NCI-H1563 = test system: NCI-H1563
Outline: as §1

NCI-H1975 = test system: NCI-H1975
Outline: as §1

HCC-44 = test system: HCC-44
Outline: as §1

NCI-H1355 = test system: NCI-H1355
Outline: as §1

NCI-H2023 = test system: NCI-H2023
Outline: as §1

NCI-H2342 = test system: NCI-H2342
Outline: as §1

Work on `CC(C)Oc1cc(Nc2nc(N[C@@H](C)c3ccc(F)cn3)ncc2Cl)n[nH]1` [AZ23] + COc1cccc2cc(-c3nc([C@H]4CC[C@H](C(=O)O)CC4)n4ncnc(N)c34)[nH]c12 [OSI-027] (partner 0.5 µM) yielded a relative viability (NCI-H441; first compound 0.01 µM) of 0.707, a relative viability (NCI-H441; first compound 0.03162 µM) of 0.729 and a relative viability (NCI-H441; first compound 0.3162 µM) of 0.566. It also gave a relative viability (EKVX; first compound 0.01 µM) of 0.801, a relative viability (EKVX; first compound 0.03162 µM) of 0.636 and a relative viability (EKVX; first compound 0.3162 µM) of 0.66. For the same compound, the relative viability (NCI-H358; first compound 0.01 µM) was 0.682, the relative viability (NCI-H358; first compound 0.03162 µM) was 0.725 and the relative viability (NCI-H358; first compound 0.3162 µM) was 0.805. It also gave a relative viability (HCC-366; first compound 0.01 µM) of 1.06, a relative viability (HCC-366; first compound 0.03162 µM) of 0.872 and a relative viability (HCC-366; first compound 0.3162 µM) of 1.05. It also gave a relative viability (NCI-H1437; first compound 0.01 µM) of 0.878, a relative viability (NCI-H1437; first compound 0.03162 µM) of 1.01 and a relative viability (NCI-H1437; first compound 0.3162 µM) of 1.05. The relative viability (LOU-NH91; first compound 0.01 µM) was 0.692, the relative viability (LOU-NH91; first compound 0.03162 µM) was 0.753 and the relative viability (LOU-NH91; first compound 0.3162 µM) was 0.704. The relative viability (NCI-H1650; first compound 0.03162 µM) was 0.689, the relative viability (NCI-H1650; first compound 0.3162 µM) was 0.713 and the relative viability (HCC-15; first compound 0.01 µM) was 0.687. It also gave a relative viability (HCC-15; first compound 0.03162 µM) of 0.665, a relative viability (HCC-15; first compound 0.3162 µM) of 0.684 and a relative viability (NCI-H1734; first compound 0.01 µM) of 0.628. For the same compound, the relative viability (NCI-H1734; first compound 0.03162 µM) was 0.62, the relative viability (NCI-H1734; first compound 0.3162 µM) was 0.588 and the relative viability (LCLC-103H; first compound 0.01 µM) was 0.401. For the same compound, the relative viability (LCLC-103H; first compound 0.03162 µM) was 0.505, the relative viability (LCLC-103H; first compound 0.3162 µM) was 0.535 and the relative viability (BEN; first compound 0.01 µM) was 0.312. The relative viability (BEN; first compound 0.03162 µM) was 0.287, the relative viability (BEN; first compound 0.3162 µM) was 0.268 and the relative viability (NCI-H1395; first compound 0.03162 µM) was 0.708. For the same compound, the relative viability (NCI-H1395; first compound 0.3162 µM) was 0.655, the relative viability (NCI-H838; first compound 0.01 µM) was 0.437 and the relative viability (NCI-H838; first compound 0.03162 µM) was 0.402. For the same compound, the relative viability (NCI-H838; first compound 0.3162 µM) was 0.424, the relative viability (NCI-H1651; first compound 0.03162 µM) was 0.77 and the relative viability (NCI-H1651; first compound 0.3162 µM) was 0.881. For the same compound, the relative viability (NCI-H460; first compound 0.01 µM) was 0.382, the relative viability (NCI-H460; first compound 0.03162 µM) was 0.657 and the relative viability (NCI-H460; first compound 0.3162 µM) was 0.885. The relative viability (NCI-H1755; first compound 0.01 µM) was 0.639, the relative viability (NCI-H1755; first compound 0.03162 µM) was 0.809 and the relative viability (NCI-H1755; first compound 0.3162 µM) was 0.771. The relative viability (CAL-12T; first compound 0.03162 µM) was 0.593, the relative viability (CAL-12T; first compound 0.3162 µM) was 0.778 and the relative viability (NCI-H2085; first compound 0.01 µM) was 0.676. The relative viability (NCI-H2085; first compound 0.03162 µM) was 0.76, the relative viability (NCI-H2085; first compound 0.3162 µM) was 0.659 and the relative viability (NCI-H1563; first compound 0.01 µM) was 0.768. It also gave a relative viability (NCI-H1563; first compound 0.03162 µM) of 0.775, a relative viability (NCI-H1563; first compound 0.3162 µM) of 0.775 and a relative viability (NCI-H1975; first compound 0.01 µM) of 0.874. For the same compound, the relative viability (NCI-H1975; first compound 0.03162 µM) was 0.812, the relative viability (NCI-H1975; first compound 0.3162 µM) was 0.727 and the relative viability (HCC-44; first compound 0.01 µM) was 0.538. The relative viability (HCC-44; first compound 0.03162 µM) was 0.661, the relative viability (HCC-44; first compound 0.3162 µM) was 0.375 and the relative viability (NCI-H1355; first compound 0.01 µM) was 0.401. For the same compound, the relative viability (NCI-H1355; first compound 0.03162 µM) was 0.421, the relative viability (NCI-H1355; first compound 0.3162 µM) was 0.361 and the relative viability (NCI-H2023; first compound 0.03162 µM) was 0.373. It also gave a relative viability (NCI-H2023; first compound 0.3162 µM) of 0.437, a relative viability (NCI-H2342; first compound 0.01 µM) of 0.702 and a relative viability (NCI-H2342; first compound 0.03162 µM) of 0.593. The relative viability (NCI-H2342; first compound 0.3162 µM) was 0.569.
`CC(C)Oc1cc(Nc2nc(N[C@@H](C)c3ccc(F)cn3)ncc2Cl)n[nH]1` [AZ23] + N=C(N)NC(=N)NCCc1ccccc1 [Phenformin] (partner 250 µM) was tested, and the relative viability (NCI-H441; first compound 0.01 µM) was 0.865, the relative viability (NCI-H441; first compound 0.03162 µM) was 0.841 and the relative viability (NCI-H441; first compound 0.3162 µM) was 0.906. For the same compound, the relative viability (EKVX; first compound 0.01 µM) was 0.224, the relative viability (EKVX; first compound 0.03162 µM) was 0.237 and the relative viability (EKVX; first compound 0.3162 µM) was 0.231. It also gave a relative viability (NCI-H358; first compound 0.01 µM) of 0.369, a relative viability (NCI-H358; first compound 0.03162 µM) of 0.347 and a relative viability (NCI-H358; first compound 0.3162 µM) of 0.348. It also gave a relative viability (HCC-366; first compound 0.01 µM) of 0.614, a relative viability (HCC-366; first compound 0.03162 µM) of 0.641 and a relative viability (HCC-366; first compound 0.3162 µM) of 0.658. The relative viability (NCI-H1437; first compound 0.01 µM) was 0.298, the relative viability (NCI-H1437; first compound 0.03162 µM) was 0.336 and the relative viability (NCI-H1437; first compound 0.3162 µM) was 0.345. For the same compound, the relative viability (LOU-NH91; first compound 0.01 µM) was 0.713, the relative viability (LOU-NH91; first compound 0.03162 µM) was 0.755 and the relative viability (LOU-NH91; first compound 0.3162 µM) was 0.728. The relative viability (NCI-H1650; first compound 0.03162 µM) was 0.537, the relative viability (NCI-H1650; first compound 0.3162 µM) was 0.405 and the relative viability (HCC-15; first compound 0.01 µM) was 0.555. The relative viability (HCC-15; first compound 0.03162 µM) was 0.537, the relative viability (HCC-15; first compound 0.3162 µM) was 0.494 and the relative viability (NCI-H1734; first compound 0.01 µM) was 0.335. For the same compound, the relative viability (NCI-H1734; first compound 0.03162 µM) was 0.451, the relative viability (NCI-H1734; first compound 0.3162 µM) was 0.439 and the relative viability (LCLC-103H; first compound 0.01 µM) was 0.339. For the same compound, the relative viability (LCLC-103H; first compound 0.03162 µM) was 0.352, the relative viability (LCLC-103H; first compound 0.3162 µM) was 0.333 and the relative viability (BEN; first compound 0.01 µM) was 0.292. It also gave a relative viability (BEN; first compound 0.03162 µM) of 0.282, a relative viability (BEN; first compound 0.3162 µM) of 0.268 and a relative viability (NCI-H1395; first compound 0.03162 µM) of 0.483. It also gave a relative viability (NCI-H1395; first compound 0.3162 µM) of 0.451, a relative viability (NCI-H838; first compound 0.01 µM) of 0.546 and a relative viability (NCI-H838; first compound 0.03162 µM) of 0.586. The relative viability (NCI-H838; first compound 0.3162 µM) was 0.597, the relative viability (NCI-H1651; first compound 0.03162 µM) was 0.332 and the relative viability (NCI-H1651; first compound 0.3162 µM) was 0.356. The relative viability (NCI-H460; first compound 0.01 µM) was 0.335, the relative viability (NCI-H460; first compound 0.03162 µM) was 0.601 and the relative viability (NCI-H460; first compound 0.3162 µM) was 0.549. It also gave a relative viability (NCI-H1755; first compound 0.01 µM) of 0.689, a relative viability (NCI-H1755; first compound 0.03162 µM) of 0.651 and a relative viability (NCI-H1755; first compound 0.3162 µM) of 0.673. For the same compound, the relative viability (CAL-12T; first compound 0.03162 µM) was 0.591, the relative viability (CAL-12T; first compound 0.3162 µM) was 0.524 and the relative viability (NCI-H2085; first compound 0.01 µM) was 0.727. It also gave a relative viability (NCI-H2085; first compound 0.03162 µM) of 0.705, a relative viability (NCI-H2085; first compound 0.3162 µM) of 0.779 and a relative viability (NCI-H1563; first compound 0.01 µM) of 0.708. The relative viability (NCI-H1563; first compound 0.03162 µM) was 0.653, the relative viability (NCI-H1563; first compound 0.3162 µM) was 0.707 and the relative viability (NCI-H1975; first compound 0.01 µM) was 0.43. The relative viability (NCI-H1975; first compound 0.03162 µM) was 0.416, the relative viability (NCI-H1975; first compound 0.3162 µM) was 0.397 and the relative viability (HCC-44; first compound 0.01 µM) was 0.231. It also gave a relative viability (HCC-44; first compound 0.03162 µM) of 0.4, a relative viability (HCC-44; first compound 0.3162 µM) of 0.245 and a relative viability (NCI-H1355; first compound 0.01 µM) of 0.462. The relative viability (NCI-H1355; first compound 0.03162 µM) was 0.483, the relative viability (NCI-H1355; first compound 0.3162 µM) was 0.455 and the relative viability (NCI-H2023; first compound 0.03162 µM) was 0.506. It also gave a relative viability (NCI-H2023; first compound 0.3162 µM) of 0.481, a relative viability (NCI-H2342; first compound 0.01 µM) of 0.683 and a relative viability (NCI-H2342; first compound 0.03162 µM) of 0.634. The relative viability (NCI-H2342; first compound 0.3162 µM) was 0.564.
